# Results reported in US20260248918A1, “COMPOSITIONS AND METHODS OF SUPPRESSING AVERSIVENESS OF PHARMACEUTICALS AND INGESTIBLE MATERIALS” (Monell Chemical Senses Center, priority 2019, published 2026).
# Structures can show the parent of a compound that is named as a salt.
# Tests used:
# [1] = molecular target: T1, TAS2R39 (Homo sapiens, UniProt P59534); settings: reported in Roland et al. 2014, data not shown; cited from earlier work
# T1 sequence (P59534 1-338): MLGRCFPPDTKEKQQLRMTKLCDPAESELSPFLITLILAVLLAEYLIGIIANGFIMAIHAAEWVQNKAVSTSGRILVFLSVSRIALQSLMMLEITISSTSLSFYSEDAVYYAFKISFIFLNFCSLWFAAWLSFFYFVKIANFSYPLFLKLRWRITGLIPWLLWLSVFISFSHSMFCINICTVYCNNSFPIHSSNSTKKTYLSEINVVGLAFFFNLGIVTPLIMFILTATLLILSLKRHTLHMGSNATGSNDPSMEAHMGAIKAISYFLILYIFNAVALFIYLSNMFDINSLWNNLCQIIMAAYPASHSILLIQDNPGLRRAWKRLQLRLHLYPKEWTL
# [2] = molecular target: T2, TAS2R1 (Homo sapiens, UniProt Q9NYW7); test: Response profile of TAS2Rs to target compounds: TAS2R1; assay type: cell-based; settings: FIG. 4: Piperaquine 0.5 mM, Tenofovir (TAF) 1 mM
# T2 sequence (Q9NYW7 1-299): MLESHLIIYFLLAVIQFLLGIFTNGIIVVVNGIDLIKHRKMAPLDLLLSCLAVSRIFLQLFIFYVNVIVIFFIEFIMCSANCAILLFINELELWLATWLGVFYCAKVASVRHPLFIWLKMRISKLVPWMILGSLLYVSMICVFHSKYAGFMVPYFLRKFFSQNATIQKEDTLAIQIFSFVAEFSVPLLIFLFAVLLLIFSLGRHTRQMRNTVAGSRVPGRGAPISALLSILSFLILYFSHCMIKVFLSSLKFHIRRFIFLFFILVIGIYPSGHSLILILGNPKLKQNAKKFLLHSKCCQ
# Description: (§1) FIG. 4 is a table showing response profiles of TAS2Rs to indicated target compounds at indicated concentrations. Praziquantel: 0.75 mM, L-praziquantel: 0.1 mM, Zinc sulfate: 20 mM, Dihydroartemisinin: 2 mM (not fully dissolved), Piperaquine, 0.5 mM, Tenofovir (TAF), 1 mM and Ritonavir, 1 mM. Symbols: + means that there was activation; a − negative sign means that there was no significant activation of the receptor; a “larger + sign” means that receptor(s) were most sensitive to the compound (activated at lower concentrations.
# (§2) Using a primary hTBEC platform, a high throughput screening (HTS) was conducted with more than 2,000 small molecular weight purified phytochemicals and botanical extracts. The screen identified 40 antagonists that suppressed taste cell activation by target APIs. […] TAS2R1 is responsive to piperaquine and tenofovir. (See FIG. 4)
# [3] = molecular target: T1, TAS2R39; test: Response profile of TAS2Rs to target compounds: TAS2R39; assay type: cell-based; set-up: expressed in transfected cells; host or cells: HEK; settings: FIG. 4: Piperaquine 0.5 mM, Tenofovir (TAF) 1 mM, Dihydroartemisinin 2 mM (not fully dissolved)
# Description: as §1, §2
# [4] = molecular target: T3, TAS2R14 (Homo sapiens, UniProt Q9NYV8); test: Response profile of TAS2Rs to target compounds: TAS2R14; assay type: cell-based; settings: FIG. 4: Praziquantel 0.75 mM, L-praziquantel 0.1 mM, Dihydroartemisinin 2 mM (not fully dissolved), Piperaquine 0.5 mM, TAF 1 mM, Ritonavir 1 mM, Zinc sulfate 20 mM
# T3 sequence (Q9NYV8 1-317): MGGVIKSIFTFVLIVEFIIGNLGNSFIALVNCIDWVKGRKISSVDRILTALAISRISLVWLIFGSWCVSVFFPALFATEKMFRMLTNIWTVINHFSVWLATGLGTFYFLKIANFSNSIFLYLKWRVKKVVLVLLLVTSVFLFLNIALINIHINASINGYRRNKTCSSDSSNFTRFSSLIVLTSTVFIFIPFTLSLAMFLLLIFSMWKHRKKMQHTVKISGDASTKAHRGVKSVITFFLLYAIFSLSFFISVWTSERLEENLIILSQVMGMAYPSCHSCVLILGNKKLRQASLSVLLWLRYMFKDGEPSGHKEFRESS
# Description: as §1, §2
# [5] = system: human subjects; test: Human sensory testing (gLMS) of API bitterness with blocker, as pre-rinse or admixture; assay type: in vivo; settings: added as sensory excipients to APIs
# Excerpt: Methods of evaluating the sensory properties of the API and admixtures with the blocker compounds of Formula A are adopted from Breslin PA, and Tharp CD, “Reduction of saltiness and bitterness after a chlorhexidine rinse,” Chem Senses. 2001 February; 26(2):105-16. More details are illustrated below.
# Subjects participate in the study after providing informed consent. Gender of the subjects is balanced between male and female. The subjects are adults with ages ranging from 20 years old to 50 years old. […] The participants are asked to refrain from eating, drinking, or chewing gum for 1 hr prior to testing. Subjects are trained to use the General Labeled Magnitude Scale (gLMS) following standard published procedures. See. e.g., Breslin P A, and Tharp C D. “Reduction of saltiness and bitterness after a chlorhexidine rinse,” Chem Senses. 2001 February; 26(2): 105-16; Keast and Breslin, “Bitterness suppression with zinc sulfate and Na-cyclamate: a model of combined peripheral and central neural approaches to flavor modification.” Pharm Res. 2005 November; 22(11):1970-7. Epub 2005 Aug. 26; Green et al, “Evaluating the ‘Labeled Magnitude Scale’ for measuring sensations of taste and smell.” Chem Senses. 1996 June; 21(3):323-34; Barry G. Green, et al, “Derivation and evaluation of a semantic scale of oral sensation magnitude with apparent ratio properties,” Chemical Senses, Volume 18, Issue 6, 1 Dec. 1993, Pages 683-702; and Bartoshuk L M, “Comparing sensory experiences across individuals: recent psychophysical advances illuminate genetic variation in taste perception.” Chem Senses. 2000 August; 25(4):447-60.
# The selected API (in racemic or L form as applicable) is diluted/dissolved in deionized (di) filtered water upon use into various concentrations. […] The API is prepared and dissolved in deionized filtered water or in […] 6-methylflavone to a final concentration. All solutions are stored on ice or at 4° C. to 8° C. and brought up to room temperature prior to testing.
# The following testing protocol is performed. The tested solutions are provided to the subjects in random order. Subjects rinsed with di water at least four times over a 2-minute period prior to tasting each solution. The subjects are instructed to wear nose clips to eliminate olfactory input, pour the whole solution in their mouth for 3-5 seconds, and rate the perceived sensation (including bitterness, sourness, astringency, burning, stinging and nausea) intensity of the solution while it remained in the mouth, prior to expectorating. Taste intensity is recorded on a computerized gLMS, analyzed and plotted.
molecule,measurement,setting,value
COc1ccc2oc(-c3ccccc3)cc(=O)c2c1 [6-methoxyflavone],Inhibition of hTAS2R39 activation,[1],unable to inhibit
"CC(C)OC(=O)[C@H](C)N[P@](=O)(CO[C@H](C)Cn1cnc2c(N)ncnc21)Oc1ccccc1 [TAF, tenofovir alafenamide fumarate]",Activation of TAS2R1,[2],responsive
same,Activation of TAS2R39,[3],one of the most responsive receptors
O=C(C1CCCCC1)N1CC(=O)N2CCc3ccccc3C2C1 (racemic) [Praziquantel],Activation of TAS2R14,[4],one of most responsive receptors
CC(C)c1nc(CN(C)C(=O)N[C@H](C(=O)N[C@@H](Cc2ccccc2)C[C@H](O)[C@H](Cc2ccccc2)NC(=O)OCc2cncs2)C(C)C)cs1 [Ritonavir],Activation of TAS2R14,[4],one of most responsive receptors
Clc1ccc2c(N3CCN(CCCN4CCN(c5ccnc6cc(Cl)ccc56)CC4)CC3)ccnc2c1 [Piperaquine],Activation of TAS2R1,[2],responsive
same,Activation of TAS2R39,[3],one of the most responsive receptors
O=C(C1CCCCC1)N1CC(=O)N2CCc3ccccc3[C@@H]2C1 [L-praziquantel],Activation of TAS2R14,[4],one of most responsive receptors
zinc,Reduction of API bitterness by sensory excipients,[5],significantly reduce
sodium,Reduction of API bitterness by sensory excipients,[5],significantly reduce
